Measurements: a melting point compilation (Tetko et al.; mined from patent text by program, amines drawn as free bases though some values may be those of a salt)

| SMILES | melting point [°C] |
| --- | --- |
| CCC(C)(C)C(=O)NNc1cc(NC(=O)CC(C)(C)C)cc(NC(=O)CC(C)(C)C)c1 | 332 to 334 |
| COc1cc(C(=O)CCN(C)C)cc(OC)c1OC | 45 to 47 |
| CCCCCCCCCCCCC1(CCCCCCCCCCCC)c2cc(Br)ccc2-c2ccc(Br)cc21 | 49 to 50 |
| CC(O)Cc1cc(N)cc([N+](=O)[O-])c1N (centres undefined) | 115 |
| COC(=O)COc1cccc2c1c(C(=O)C(N)=O)c(C)n2Cc1cccc2ccccc12 | 188 to 190 |
| C[Si](C)(C)C#Cc1cnc(C(F)(F)F)nc1 | 75.5 to 76 |
| O=S1(=O)c2ccccc2Nc2nccnc21 | 316 to 318 |
| C#CCOC(=O)C=CC(=O)OCC#C | 78 to 80 |
| CCCCCCCCCC#CCCCCCCCCCCCO | 38 to 39 |
| NC(=S)NN=C(CCCCl)c1ccc(O)cc1 | 126 to 129 |
| O=C(NC1CCCCC1)c1c(O)c2cc(Cl)ccc2n(Cc2ccccc2)c1=O | 158 |
| CSc1nn(C(=O)NS(=O)(=O)c2ccccc2OC(F)(F)F)c(=O)n1N | 136 |
| O=[N+]([O-])c1cc(C(F)(F)F)ccc1C1(O)CC=NO1 (centres undefined) | 122 to 123 |
| Cc1cc(OCCCCl)c(C)c(C)c1OCCCCl | 143 |
| CCN(CC)CC1CCCCN1CCNC(=O)N1c2ccccc2NC(=O)c2csc(C)c21 (centres undefined) | 132 to 133 |
| OC(CSCc1ccc(Cl)cc1)(Cn1cncn1)c1ccc(Cl)cc1Cl (centres undefined) | 106 to 107 |
| CC(C)(C)c1nnc(NN=Cc2ccccc2)s1 | 195 to 196 |
| CCCCc1cc2cn(C3CCCC3)c(=O)nc2o1 | 130 to 131 |
| Cc1csn(-c2ccc(Cl)cc2)c1=O | 157 to 159 |
| C#CCN1CCNC1=C[N+](=O)[O-] | 146 to 147 |
| CCCCCCc1cnc(-c2ccc(C#N)cc2)nc1 | 53.5 to 54.5 |
| O=C(NC1CCCCC1)NS(=O)(=O)c1cnccc1NC1CCCCC1 | 165 to 167 |
| CCCc1ncc2cc(Cl)nc(OC)n12 | 76 to 77 |

| SMILES | melting point [°C] |
| --- | --- |
| CS(=O)(=O)c1ccc(C2=NN(S(=O)(=O)c3ccc(I)cc3)CCC2)cc1 | 198 to 204 |
| CC(C)(C)OC(=O)N1[C@@H](CC2CCCCC2)[C@H](CC2SCCCS2)OC1(C)C | 104 to 106 |
| Cc1nn(-c2ccc(Cl)cc2)c(C)c1NC(N)=S | 244 to 246 |
| COc1ccc(COC(=O)NC(CO)Cc2ccc(O)cc2)cc1OC (centres undefined) | 152 to 155 |
| COc1cc(CSc2ccc(O)cc2)cc(OC)c1OC | 139 to 140 |
| CCOC(=O)c1c(C)nc2scnc2c1NC(C)C | 48 to 50 |
| Nc1ccccc1CN(N)c1ccc(Cl)cc1 | 83 to 87 |
| O=C=Nc1ccc2c(c1)C(=O)OC2=O | 80 to 82 |
| NS(=O)C12CC3CC(CC(C3)C1)C2 (centres undefined) | 139 to 141 |
| COCCONC(=O)c1nc(-c2ccc(Cl)c(OC)c2F)cc(N)c1Cl | 155 to 157 |
| C#Cc1ccc2c(c1)C(=O)N(C(C)(C)C)CC(=O)N2 | 216 to 219 |
| CC(C)(C)OC(=O)Nc1cc(Br)cc(C(F)(F)F)c1 | 113 to 115 |
| C[C@@H](NC(=O)c1c[nH]c2ncc(-c3nn(C)c4cc(Cl)cc(F)c34)nc12)C(=O)N1CC(C#N)C1 | 267 to 268 |
| CS(=O)(=O)c1nccn1CC(=O)O | 218 to 219 |
| OCCOc1cc(O)ccc1-c1nc2cnccc2[nH]1 | 250 |
| N=C(N)NNC1=NS(=O)(=O)c2ccccc21 | 252 to 253 |
| CCCc1c(OCCCCCC(=O)NCCCCc2ccccn2)ccc(C(C)=O)c1O | 63 to 66 |
| C[C@H]1NC(C)(C)CO[C@]1(O)c1cccc(Cl)c1 | 128 to 131 |
| CC(C)(C)c1ccccc1-n1cnnc1C(F)(F)F | 120 |
| N=c1[nH]c2ccc(Cl)cc2c2nc(-c3ccc(Br)o3)nn12 | 282 to 283 |
| CC(C)NC(=O)c1c(F)cccc1S(=O)C(C)(C)C (centres undefined) | 120 to 135 |
| NS(=O)(=O)c1ccc2c(c1)C(=NO)CCC2 | 162 to 164 |

Results, then the molecule that gave them:

| melting point [°C] | SMILES |
| --- | --- |
| 214 | O=C(Nc1ccccc1S(=O)(=O)NCC1CCCCC1)N[C@@H](Cc1ccc(NC(=O)c2c(Cl)cncc2Cl)cc1)C(=O)O |
| 208 to 211 | CCOC(=O)c1cn(-c2ccc(F)cc2F)c2nc(N3CCNCC3)c(F)cc2c1=O |
| 154 to 155 | CN1CCCCC1Cn1nc(-c2c(-c3ccccc3)nn3ccccc23)ccc1=O (centres undefined) |
| 120 | COC(=O)CCCc1cc2cc(Cl)ccc2n1S(=O)(=O)c1ccc2nc(NC(C)=O)sc2c1 |
| 233 to 236 | Nc1nn(Cc2ccccc2)c2nc3n(c(=O)c12)CCS3 |
| 196 to 200 | CCCC1=C(C#N)C(c2cccc(N3CCOCC3)c2)c2c[nH]nc2N1 (centres undefined) |
| 220 to 222 | CC(=O)c1cccc(-c2cc3c(=O)n(NS(C)(=O)=O)c(=O)[nH]c3cc2C(F)(F)F)c1 |
| 220 to 223 | CCn1c(=O)c(-c2cc(C)cc(C)c2)cc2cnc(Nc3ccccc3)nc21 |
| 108 to 116 | CCOC1CC(O)C(=O)N1S(=O)(=O)c1ccccc1 (centres undefined) |
| 196 | NC(=O)c1ccc(CCN2CCC(=C3c4ccsc4CCn4ccnc43)CC2)cc1 |
| 65 to 67 | COC(=O)CCc1cc(C(=O)c2cccc(C#N)c2)ccc1OCCCCC=Cc1ccc(OC)cc1 |
| 54 | CCN(CC)C(=O)Oc1nc(-c2ccccc2)nc2ccccc12 |
| 130 | O=C(OCc1ccccc1)N1CCC(Nc2nc3cccnc3n2Cc2ccc(F)cc2)CC1 |
| 143 to 144 | CCOc1c(C(N)=O)n(-c2ccccc2)c2ccc(OC)cc12 |
| 164 | N#Cc1cc(C2=Nc3cc(O)c(-c4ccc(F)cc4)cc3NC(=O)C2)ccn1 |
| 153 to 155 | O=C(O)Cn1c(=O)n(CCCCN2CCC(OC(c3ccccc3)c3ccccc3)CC2)c(=O)c2ccccc21 |
| 66 | CCC1=Nc2ccccc2CC(c2ccc(C)s2)N1C (centres undefined) |
| 220 to 222 | O=C(NCc1ccc(Cl)cc1)c1cn2c3c(cc(CN4CCOCC4)cc3c1=O)OC(c1ccco1)C2 (centres undefined) |
| 102 | COC(=O)CCc1cc2nc(Cl)ccc2n1S(=O)(=O)c1cccc(OC(F)(F)F)c1 |
| 132 to 135 | CP(=O)(NCC(=O)OCc1ccccc1)C1CC(c2ccccc2)=NO1 (centres undefined) |
| 139 to 140 | c1ccc(CN2CCOC(CN3c4ccccc4CCc4ccccc43)C2)cc1 (centres undefined) |
| 63 | Cc1cc(Cc2ccccc2)c(NCc2ccccn2)c(=O)n1CC(=O)O |
| 178 to 180 | COc1ccc(C(NCCCc2ccccc2)c2cccc(Nc3c(N)c(=O)c3=O)c2)cc1 (centres undefined) |
| 204 to 206 | O=C(Oc1ccc2c(=O)cc(N3CCOCC3)oc2c1)c1ccccc1 |
| 155 to 156 | O=C1CCC(C(=O)NCc2cccc3ccccc23)c2ccccc21 (centres undefined) |
| 133 to 136 | Fc1ccc2[nH]cc(CC3C=CCN(Cc4ccccc4)C3)c2c1 (centres undefined) |
| 171 to 176 | Cc1ccc(S(=O)(=O)N2N=C(c3ccccc3)CC3CCCC32)cc1 (centres undefined) |
| 213 to 232 | O=C(c1ccccc1)N1CCc2[nH]c3cc(-c4ccccc4)ccc3c2CC1 |
| 134 | CC(C)(C)OC(=O)N1C(=O)C(Br)=C(c2cn(C(=O)OC(C)(C)C)c3ccc(OCc4ccccc4)cc23)C1=O |
